Measurements published in patent US20250127804A1, “RIBOSE LINKERS AND CONJUGATES THEREOF” (ELYSIUM HEALTH INC., priority 2022, published 2025).
Several values for one entry are separate records, joined by “and”; a condition that tells them apart may be missing. Equal entries are not always repeated. Entries after “also recorded” stand apart in the source; their conditions may differ. Where two headings read alike, the source gives them in different places.

How the values were obtained:
[1] = system: purine nucleoside phosphorylase (PNP); experiment: PNP enzyme activity assay (release of NAM monitored by 1H NMR); type: in vitro ADME; details: for stability to PNP (in words): triflates dissolved in DMSO; for overall trend of stability of NR esters to PNP: rank order; for ester hydrolysis / deprotection observed during PNP incubation: over time
Description: To ensure that the stability rather than the solubility could be investigated, both the triflate and the chloride form of NRLR (“NRLR-OTf” and “NRLR-Cl”, respectively) were tested for their stability in aqueous buffers and as substrates of the enzyme purine nucleoside phosphorylase (PNP). The release of nicotinamide (NAM) was measured, which is indicative of water-catalyzed hydrolysis. Further, the release of ribose vs. phosphoriboside was monitored, which is indicative of PNP activity. Loss of esters via hydrolysis in buffer catalyzed condition also occurs over time. Once the C5-hydroxyl is free, PNP recognizes the nucleoside and catalyze phosphorolysis. It is not known whether this hydrolysis must occur for all the esters before PNP can act on the nucleoside. The scheme below illustrates the reaction with a partially deprotected nucleoside.
Phosphorolysis of NRCl by PNP (Sigma Aldrich) was performed in HEPES buffer, containing KH2PO4 and 10% D2O at 25° C. and was monitored by 1H NMR.
Incubations were conducted in the NMR tube which contained a final volume of 505 μl including 450 μl HEPES buffer (100.0 mM, pH 7.0), containing 100 mM KH2PO4, 50.0 μl NRCl (100.0 mM in 1 mL D2O) and when appropriate 5 μl PNP (1 mg dissolved in 50 μl HEPES buffer) was added and measurements were taken at t=5 min and 15 min.
Similarly, PNP study of NRAD-triflate was conducted in DMSO.

[2] = Octanol-water partition coefficient (Pow) by 1H NMR; type: physicochemical
Description: The experiment was performed as described in “Measuring Lipophilicity with NMR,” SpinSolve Carbon®, MagriTek (2014). Briefly, ^1H NMR spectra were recorded for NRLR-Cl in D2O, then an equivalent volume of 1-octanol was added to the same NMR tube, and the ^1H NMR was recorded again. The measurements were performed in triplicate. The Pow was calculated based on the concentrations of the NRLR-Cl in the D2O layer and in the octanol layer, as determined based on the NMR peak values. The average measured log POW of NRLR-Cl is 1.816.

Solubility in water = type: physicochemical
[3] = system: enhanced lipase (Candida rugens); experiment: Lipase assay; type: in vitro ADME
Description: NRLR was subjected to a lipase assay in 10% DMSO, 450 μL HEPES buffer, and enhanced lipase (Candida rugens).

[4] = 1-octanol/D2O, single experiment, listed as NRLR-CI

Compound | stability to PNP (in words) ([1]; 1H NMR) | overall trend of stability of NR esters to PNP [1] | solubility in water (Solubility in water) | ester hydrolysis / deprotection observed during PNP incubation ([1]; 1H NMR) | remaining NR diester peaks ([1]; PNP, after 2 days (FIG. 40B)) | further results
NC(=O)c1ccc[n+]([C@@H]2O[C@H](CO)[C@@H](O)[C@H]2O)c1 [NRCl, Nicotinamide riboside, reference compound] | least stable to PNP enzyme | NRTA>NRAD>NRML>NRLR>NRCl |  |  |  | time to complete conversion/degradation to NAM after PNP addition ([1]; HEPES buffer pH 7.0, KH2PO4, 10% D2O, 25° C., 1H NMR, listed as NR): ≤ 5 min
CCCCCCCCCCCC(=O)OC[C@H]1O[C@@H]([n+]2cccc(C(N)=O)c2)[C@H](OC(C)=O)[C@@H]1OC(C)=O [NRLR-Cl, NRLR-Chloride] |  |  | soluble in water |  |  | Average (LogPow) ([2]; 1-octanol/D2O, average of triplicate): 1.816; logP ([2]; 1-octanol/D2O, average of triplicate, read-out: Average (LogPow)): 1.82; LogPow [2, 4]: 1.89 and 1.80 and 1.76; Pow [2, 4]: 78.66 and 63.33 and 58.88; Peak values in water layer ([2]; 1H NMR in D2O before octanol addition, listed as NRLR-CI): 0.0478 and 0.0386 and 0.0539; Peak values after octanol addition ([2]; 1H NMR, D2O layer after equivalent volume of 1-octanol, listed as NRLR-CI): 0.0006 and 0.0009
CC(=O)OC[C@H]1O[C@@H]([n+]2cccc(C(N)=O)c2)[C@H](OC(C)=O)[C@@H]1OC(C)=O [NRTA, NR triacetate, reference compound] | stable to PNP; also recorded: more stable to PNP than NRCL | NRTA>NRAD>NRML>NRLR>NRCl |  | Slow partial ester hydrolysis |  | hydrolysis and NAM release with PNP ([1]; after 24 hours): very slowly hydrolyzed and releases NAM
CC(=O)O[C@@H]1[C@H](OC(C)=O)[C@@H](COC(=O)CC(=O)OC[C@H]2O[C@@H]([n+]3cccc(C(N)=O)c3)[C@H](OC(C)=O)[C@@H]2OC(C)=O)O[C@H]1[n+]1cccc(C(N)=O)c1 [compound 8a, NR malonate] | less stable compared to NR adipate | NRTA>NRAD>NRML>NRLR>NRCl |  |  | still showed some NR diester peaks | 
CC(=O)O[C@@H]1[C@H](OC(C)=O)[C@@H](COC(=O)CCCCC(=O)OC[C@H]2O[C@@H]([n+]3cccc(C(N)=O)c3)[C@H](OC(C)=O)[C@@H]2OC(C)=O)O[C@H]1[n+]1cccc(C(N)=O)c1 [compound 8d, NR adipate] | appears stable to PNP | NRTA>NRAD>NRML>NRLR>NRCl |  | ester dimer appeared to remain intact | still showed some NR diester peaks | 
NR-laurate (NRLR) triflate [compound 8g] | less stable compared to NR adipate | NRTA>NRAD>NRML>NRLR>NRCl | not completely soluble in water | partial deprotection of the esters over time |  | partial loss of one ester [3]: < 5%; effect of increased concentration of lipase ([3]; over 12 hours of incubation): no effect; solubility in water (Solubility in water; listed as NRLR-OTf): is not; increase in NAM ([1]; PNP, after 1 day (FIG. 40A)): 30%; degraded to NAM ([1]; PNP, after 2 days (FIG. 40B)): ~90%; overall increase in NAM ([1]; PNP, over 24 hours): 17%
